From patent publication US11319299B2, “Substituted carboxamides as inhibitors of WDR5 protein-protein binding” (PROPELLON THERAPEUTICS INC., priority 2016, dated 2022)

Tested on: MV4-11 cells
Experiment: Cell proliferation assay (ATPlite)
Type: cell-based
Settings: Homo sapiens, MV4-11, 120 h; MV-411 cells, five days; read-out: In vitro whole cell potency in MV-411 cells, (IC50)
Description: (iv) Cell Proliferation Assay
MV4-11 cells were seeded into a 96-well plate at 1,000 cells/well in 150 μl medium (Alpha-MEM containing 10% FBS, 100 μg/ml Normocin, and 50 μg/ml Gentamycin, Invitrogen). A HP D300 digital dispenser was used to dose cells with DMSO or test compounds across a 10-point range of concentrations (high dose of 10 μM), and cultures were grown in a humidified 5% CO2 incubator at 37° C. After five days, plates were removed from the incubator and equilibrated to room temperature. An equal volume of ATPlite assay reagent was added to each well, and samples were processed according to manufacturer's instructions (Perkin Elmer). Luminescent signal was measured using an Envision plate reader equipped with a US-Luminescence detector.

| IC50 [nM] | Structure (SMILES) |
| --- | --- |
| 210 | CN1CCN(c2cc(F)c(-c3ccc(OC4CCOCC4)nc3)cc2NC(=O)c2c[nH]c(=O)cc2C(F)(F)F)CC1 [Example 30, N-[4-fluoro-2-(4-methylpiperazin-1-yl)-5-[6-(oxan-4-yloxy)pyridin-3-yl]phenyl]-6-oxo-4-(trifluoromethyl)-1H-pyridine-3-carboxamide] |
| 571 | C[C@@H]1CN(c2cc(F)c(-c3cnc(C#N)nc3)cc2NC(=O)c2c[nH]c(=O)cc2C(F)(F)F)C[C@H](C)N1C [Example 31, N-[5-(2-cyanopyrimidin-5-yl)-4-fluoro-2-[(3S,5R)-3,4,5-trimethylpiperazin-1-yl]phenyl]-6-oxo-4-(trifluoromethyl)-1H-pyridine-3-carboxamide] |
| 67 | C[C@@H]1CN(c2cc(F)c(-c3ccc(N4CCOCC4)nc3)cc2NC(=O)c2c[nH]c(=O)cc2C(F)(F)F)C[C@H](C)N1C [Example 32, N-[4-fluoro-5-(6-morpholin-4-ylpyridin-3-yl)-2-[(3S,5R)-3,4,5-trimethylpiperazin-1-yl]phenyl]-6-oxo-4-(trifluoromethyl)-1H-pyridine-3-carboxamide] |
| 54 | CN(C)[C@@H]1CCN(c2cc(F)c(-c3cnc(N4CCOCC4)nc3)cc2NC(=O)c2c[nH]c(=O)cc2C(F)(F)F)C1 [Example 37, N-[2-[(3R)-3-(dimethylamino)pyrrolidin-1-yl]-4-fluoro-5-(2-morpholin-4-ylpyrimidin-5-yl)phenyl]-6-oxo-4-(trifluoromethyl)-1H-pyridine-3-carboxamide] |
| 213 | CN1CCN(c2cc(F)c(-c3ccc(CN4CCOCC4)nc3)cc2NC(=O)c2c[nH]c(=O)cc2C(F)(F)F)CC1 [Example 41, N-[4-fluoro-2-(4-methylpiperazin-1-yl)-5-[6-(morpholin-4-ylmethyl)pyridin-3-yl]phenyl]-6-oxo-4-(trifluoromethyl)-1H-pyridine-3-carboxamide] |
| 2900 | CN1CCN(c2cc(F)c(-c3ccnc(N4CCOCC4)c3)cc2NC(=O)c2c[nH]c(=O)cc2C(F)(F)F)CC1 [Example 46, N-(4-fluoro-2-(4-methylpiperazin-1-yl)-5-(2-morpholinopyridin-4-yl)phenyl)-6-oxo-4-(trifluoromethyl)-1,6-dihydropyridine-3-carboxamide] |
| > 10000 | CN1CCN(c2cc(F)c(-c3cncc(CNC4CCOCC4)c3)cc2NC(=O)c2c[nH]c(=O)cc2C(F)(F)F)CC1 [Example 48, N-(4-fluoro-2-(4-methylpiperazin-1-yl)-5-(5-(((tetrahydro-2H-pyran-4-yl)amino)methyl)pyridin-3-yl)phenyl)-6-oxo-4-(trifluoromethyl)-1,6-dihydropyridine-3-carboxmaide] |
| 2900 | C[C@@H]1CN(c2cc(F)c(-c3cccc(CN4CCOCC4)c3)cc2NC(=O)c2c[nH]c(=O)cc2C(F)(F)F)CCN1C [Example 50, (R)—N-(4-(3,4-dimethylpiperazin-1-yl)-6-fluoro-3′-(morpholinomethyl)-[1,1′-biphenyl]-3-yl)-6-oxo-4-(trifluoromethyl)-1,6-dihydropyridine-3-carboxamide] |
| 389 | C[C@H]1CN(c2cc(F)c(-c3cccc(CN4CCOCC4)c3)cc2NC(=O)c2c[nH]c(=O)cc2C(F)(F)F)CCN1C [Example 51, (S)—N-(4-(3,4-dimethylpiperazin-1-yl)-6-fluoro-3′-(morpholinomethyl)-[1,1′-biphenyl]-3-yl)-6-oxo-4-(trifluoromethyl)-1,6-dihydropyridine-3-carboxamide] |
| > 10000 | C[C@@H]1CN(c2cc(F)c(-c3cccc(CN4CCOCC4)c3)cc2NC(=O)c2c[nH]c(=O)cc2C(F)(F)F)C[C@H](C)N1C [Example 52, N-(6-fluoro-3′-(morpholinomethyl)-4-((3R,5S)-3,4,5-trimethylpiperazin-1-yl)-[1,1′-biphenyl]-3-yl)-6-oxo-4-(trifluoromethyl)-1,6-dihydropyridine-3-carboxamide] |
| 389 | COc1cc(N2C[C@@H](C)N(C)[C@@H](C)C2)c(NC(=O)c2c[nH]c(=O)cc2C(F)(F)F)cc1-c1cnc(N2CCOCC2)nc1 [Example 55, N-[4-methoxy-5-(2-morpholin-4-ylpyrimidin-5-yl)-2-[(3R,5S)-3,4,5-trimethylpiperazin-1-yl]phenyl]-6-oxo-4-(trifluoromethyl)-1H-pyridine-3-carboxamide] |
| 435 | CN1CCN(c2ccc(-c3cnc(N4CCOCC4)nc3)cc2NC(=O)c2c[nH]c(=O)cc2C(F)(F)F)CC1 [Example 56, N-(2-(4-methylpiperazin-1-yl)-5-(2-morpholinopyrimidin-5-yl)phenyl)-6-oxo-4-(trifluoromethyl)-1,6-dihydropyridine-3-carboxamide] |
| 1470 | C[C@@H]1CN(c2ccc(-c3cnc(N4CCOCC4)nc3)cc2NC(=O)c2c[nH]c(=O)cc2C(F)(F)F)C[C@H](C)N1C [Example 58, N-(5-(2-morpholinopyrimidin-5-yl)-2-((3R,5S)-3,4,5-trimethylpiperazin-1-yl)phenyl)-6-oxo-4-(trifluoromethyl)-1,6-dihydropyridine-3-carboxamide] |

Further lines, the molecule ahead of its results:

| Structure (SMILES) | IC50 [nM] |
| --- | --- |
| C[C@@H]1CN(c2cc(F)c(-c3ccc(N4CCOCC4)cc3)cc2NC(=O)c2c[nH]c(=O)cc2C(F)(F)F)C[C@H](C)N1C [Example 29, N-[4-fluoro-5-(4-morpholin-4-ylphenyl)-2-[(3R,5S)-3,4,5-trimethylpiperazin-1-yl]phenyl]-6-oxo-4-(trifluoromethyl)-1H-pyridine-3-carboxamide] | 45 |
| Cc1ncc(-c2cc(NC(=O)c3c[nH]c(=O)cc3C(F)(F)F)c(N3C[C@@H](C)N(C)[C@@H](C)C3)cc2F)cn1 [Example 33, N-[4-fluoro-5-(2-methylpyrimidin-5-yl)-2-[(3S,5R)-3,4,5-trimethylpiperazin-1-yl]phenyl]-6-oxo-4-(trifluoromethyl)-1H-pyridine-3-carboxamide] | 72 |
| C[C@@H]1CN(c2cc(F)c(-c3cnc(N4CCOCC4)nc3)cc2NC(=O)c2c[nH]c(=O)cc2C(F)F)C[C@H](C)N1C [Example 34, 4-(difluoromethyl)-N-[4-fluoro-5-(2-morpholin-4-ylpyrimidin-5-yl)-2-[(3S,5R)-3,4,5-trimethylpiperazin-1-yl]phenyl]-6-oxo-1H-pyridine-3-carboxamide] | 38 |
| C[C@@H]1CN(c2cc(F)c(-c3cccnc3)cc2NC(=O)c2c[nH]c(=O)cc2C(F)(F)F)C[C@H](C)N1C [Example 35, N-[4-fluoro-5-pyridin-3-yl-2-[(3R,5S)-3,4,5-trimethylpiperazin-1-yl]phenyl]-6-oxo-4-(trifluoromethyl)-1H-pyridine-3-carboxamide] | 669 |
| C[C@@H]1CN(c2cc(F)c(-c3ccncc3)cc2NC(=O)c2c[nH]c(=O)cc2C(F)(F)F)C[C@H](C)N1C [Example 36, N-[4-fluoro-5-pyridin-4-yl-2-[(3R,5S)-3,4,5-trimethylpiperazin-1-yl]phenyl]-6-oxo-4-(trifluoromethyl)-1H-pyridine-3-carboxamide] | 850 |
| CN(C)[C@H]1CCN(c2cc(F)c(-c3cnc(N4CCOCC4)nc3)cc2NC(=O)c2c[nH]c(=O)cc2C(F)(F)F)C1 [Example 38, N-[2-[(3S)-3-(dimethylamino)pyrrolidin-1-yl]-4-fluoro-5-(2-morpholin-4-ylpyrimidin-5-yl)phenyl]-6-oxo-4-(trifluoromethyl)-1H-pyridine-3-carboxamide] | 4070 |
| CN1CCN(c2cc(F)c(-c3cnc(N(C)C)nc3)cc2NC(=O)c2c[nH]c(=O)cc2C(F)(F)F)CC1 [Example 40, N-[5-[2-(dimethylamino)pyrimidin-5-yl]-4-fluoro-2-(4-methylpiperazin-1-yl)phenyl]-6-oxo-4-(trifluoromethyl)-1H-pyridine-3-carboxamide] | > 10000 |
| CC1CN(c2cc(F)c(-c3cccc(CN4CCOCC4)c3)cc2NC(=O)c2c[nH]c(=O)cc2C(F)(F)F)CCN1C (stereo not shown) [Example 45, N-(4-(3,4-dimethylpiperazin-1-yl)-6-fluoro-3′-(morpholinomethyl)-[1,1′-biphenyl]-3-yl)-6-oxo-4-(trifluoromethyl)-1,6-dihydropyridine-3-carboxamide] | 491 |
| CN1CCN(c2cc(F)c(-c3cncc(CN[C@@H]4CCOC4)c3)cc2NC(=O)c2c[nH]c(=O)cc2C(F)(F)F)CC1 [Example 49, (R)—N-(4-fluoro-2-(4-methylpiperazin-1-yl)-5-(5-(((tetrahydrofuran-3-yl)amino)methyl)pyridin-3-yl)phenyl)-6-oxo-4-(trifluoromethyl)-1,6-dihydropyridine-3-carboxamide] | > 10000 |
| CN(C)C1CCN(c2cc(F)c(-c3cccc(CN4CCOCC4)c3)cc2NC(=O)c2c[nH]c(=O)cc2C(F)(F)F)C1 (stereo not shown) [Example 53, N-(4-(3-(dimethylamino)pyrrolidin-1-yl)-6-fluoro-3′-(morpholinomethyl)-[1,1′-biphenyl]-3-yl)-6-oxo-4-(trifluoromethyl)-1,6-dihydropyridine-3-carboxamide] | > 10000 |
| C[C@@H]1CN(c2ncc(-c3cc(NC(=O)c4c[nH]c(=O)cc4C(F)F)c(N4CCN(C)[C@@H](C)C4)cc3F)cn2)C[C@H](C)O1 [Example 395, 4-(difluoromethyl)-N-[4-fluoro-5-[2-[(2R,6S)-2,6-dimethylmorpholin-4-yl]pyrimidin-5-yl]-2-[(3S)-3,4-dimethylpiperazin-1-yl]phenyl]-6-oxo-1H-pyridine-3-carboxamide] | 31 |
| C[C@@H]1CN(c2cc(F)c(-c3cccc(N4CCOCC4)n3)cc2NC(=O)c2c[nH]c(=O)cc2C(F)(F)F)C[C@H](C)N1C [Example 473, N-[4-fluoro-5-(6-morpholin-4-ylpyridin-2-yl)-2-[(3R,5S)-3,4,5-trimethylpiperazin-1-yl]phenyl]-6-oxo-4-(trifluoromethyl)-1H-pyridine-3-carboxamide] | 32 |
